# Literature values as cited in article PMC12281572.
# Several values for one entry are separate records, joined by “and”; a condition that tells them apart may be missing. Equal values may be shown once.
# Experiment: FTIR, 4-fluorophenol as donor (the pK_BHX database, per the paper)
# Conditions: CCl4; 25 C
row,"pK_BHX (log10 Kf of the 1:1 H-bond complex with 4-fluorophenol, by FTIR)",Structure (SMILES)
1,1.52 log units,Cc1ccc(N=C(c2ccccc2)N(C)c2ccccc2)cc1
2,2.11 log units,CN1CCCCC1
3,0.78 log units,CC(=O)c1ccc(C(F)(F)F)cc1
4,0.17 log units,CCCCSC
5,1.76 log units,CC(=O)c1ccc(N(C)C)cc1
6,1.3 log units,CC(=O)C12CC3CC(CC(C3)C1)C2
7,1.06 log units,CN1C(=O)CCC1=O
8,0.02 log units,Cc1c(C)c(C)c(C)c(C)c1C
9,2.31 log units,COc1ccc(C(=O)N(C)C)cc1
10,1.06 log units,COC(=O)C1CCCCC1
11,1.06 log units,COc1ccccc1C#N
12,-0.22 log units,CSCSC
13,3.46 log units,Cc1cnc2c(ccc3c(C)c(C)cnc32)c1C
14,1.38 log units,CC(=Nc1ccccc1)N(C)c1ccc(Br)cc1
15,2.29 log units,CCNC(C)=O
16,0.71 log units,NCC(F)(F)F
17,1.51 log units,CN(C)C=NS(=O)(=O)c1ccccc1
18,1.07 log units,c1cncnc1
19,1.3 log units,CC(=O)c1ccc(C23CC4CC(CC(C4)C2)C3)cc1
20,2.62 log units,CN=C(c1ccccc1)N(C)C
21,1.03 log units,CCN(C)Cc1cccc(C(F)(F)F)c1
22,0.87 log units,Brc1ccc(N=C(Nc2ccc(Br)cc2)c2ccccc2)cc1
23,2.22 log units,CCC(=O)N(C1CCCCC1)C1CCCCC1
24,2.24 log units,Cc1ccncc1C

row,"pK_BHX (log10 Kf of the 1:1 H-bond complex with 4-fluorophenol, by FTIR)",Structure (SMILES)
1,0.37 log units,CC(C)c1cccc(C(C)C)c1N
2,-0.26 log units,Cc1ccc2c(c1)CN1CN2Cc2cc(C)ccc21
3,2.21 log units,CNC(C)(C)C
4,0.35 log units,O=COc1ccccc1
5,0.08 log units,CCOC(=O)C(F)(F)F
6,1.43 log units,CN(C)C=Nc1ccc(C(F)(F)F)cc1
7,1.7 log units,CN(C)C=CC#N
8,1.0 log units,CN(C)S(C)(=O)=O
9,1.41 log units,COc1cccc(N=C(c2ccccc2)N(C)c2ccccc2)c1
10,1.63 log units,CCN(C#N)CC
11,1.95 log units,CCOC(=O)N(CC)CC
12,0.68 log units,c1ccc2oncc2c1
13,0.3 log units,S=C1SCCS1
14,2.6 log units,CC(C)N=CN(C)C
15,2.09 log units,CCOC(=O)C=CN(C)C
16,1.6 log units,S=C1CCCCCN1
17,-0.49 log units,Fc1nc(F)c(F)c(F)c1F
18,1.26 log units,NCc1cccc([N+](=O)[O-])c1
19,0.65 log units,N#Cc1cccc(Br)c1
20,-0.32 log units,IC1CCCCC1
21,0.23 log units,C1CCSCC1
22,1.98 log units,c1ccc(C2=NCCC2)cc1
23,1.58 log units,NCc1cccc(F)c1
24,1.64 log units,C#CCNC

row,"pK_BHX (log10 Kf of the 1:1 H-bond complex with 4-fluorophenol, by FTIR)",Structure (SMILES)
1,1.98 log units,CCCN(C)C
2,1.2 log units,O=C1CCCCCCCCCC1
3,0.88 log units,N#CC1CCCC1
4,0.42 log units,O=[N+]([O-])c1ccc(C23CC4CC(CC(C4)C2)C3)cc1
5,0.9 log units,CC(=O)c1ccccc1Cl
6,2.12 log units,CN(C)C=NCc1ccc(Cl)cc1
7,2.3 log units,O=c1c(-c2ccccc2)c1-c1ccccc1
8,2.4 log units,COc1cccc(CN=CN(C)C)c1
9,2.13 log units,C(=Nc1ccccc1)Nc1ccccc1
10,1.56 log units,C#CCN
11,0.08 log units,C=CCSC
12,1.16 log units,CN(C)Cc1cccc(C(F)(F)F)c1
13,1.74 log units,CN(C=O)c1ccccc1
14,2.03 log units,CNC(=O)c1ccccc1
15,-0.02 log units,FC1C2CC3CC(C2)CC1C3 (centres unmarked)
16,2.02 log units,CN1CC=CCC1
17,0.89 log units,CN(C)S(=O)(=O)c1ccccc1
18,1.71 log units,CC(=O)c1ccc(N2CCCCC2)cc1
19,1.58 log units,CN1CN(C)CN(C)C1
20,2.17 log units,CCN(C)C
21,2.24 log units,CC(C)C(=O)N(C1CCCCC1)C1CCCCC1
22,2.41 log units,CC(=O)N(C1CCCCC1)C1CCCCC1
23,1.13 log units,CCOC(=O)c1ccc(OC)cc1
24,1.45 log units,CCOC(=O)N(c1ccccc1)c1ccccc1

row,Structure (SMILES),"pK_BHX (log10 Kf of the 1:1 H-bond complex with 4-fluorophenol, by FTIR)"
1,CCOC(C)=O,1.07 log units
2,c1cnc2c(c1)ccc1cccnc12,3.1 log units
3,COCCOC,1.02 log units
4,Brc1cncnc1,0.59 log units
5,CS(=O)c1ccccc1 (centres unmarked),2.24 log units
6,O=CN1CCCC1,2.31 log units
7,c1ccc2nc3ccccc3nc2c1,1.22 log units
8,O=S(Cc1ccccc1)Cc1ccccc1,2.43 log units
9,CC(C)(C)O,1.14 log units
10,OCCc1ccccc1,0.97 log units
11,Cc1cc(=O)cc(C)o1,2.5 log units
12,CC(C)C(=O)C(C)C,1.08 log units
13,COC=O,0.65 log units
14,NCc1ccccc1,1.84 log units
15,Cc1ccnc(C)c1,2.21 log units
16,CCS,-0.16 log units
17,O,0.65 log units
18,CCN(CC)CC,1.98 log units
19,N#Cc1ccccc1Br,0.71 log units
20,C1COC1,1.36 log units
21,Ic1ccccc1,-0.64 log units
22,CCOS(=O)OCC,1.07 log units

row,Structure (SMILES),"pK_BHX (log10 Kf of the 1:1 H-bond complex with 4-fluorophenol, by FTIR)"
1,C=Cc1ccncc1,1.95 log units
2,CC(C)(C)[N+](=O)[O-],0.42 log units
3,CCN(CC)C(=O)c1cccnc1,1.98 log units and 1.63 log units
4,C1COCCOCCOCCO1,1.13 log units
5,COc1cccc(C)c1,0.05 log units
6,c1cscn1,1.37 log units
7,Fc1cccc(C2CCCN2)c1 (centres unmarked),1.65 log units
8,CN(C)C,2.13 log units
9,CS(=O)c1ccc([N+](=O)[O-])cc1 (centres unmarked),1.58 log units
10,O=Cc1ccc(Cl)cc1,0.63 log units
11,CCCCCl,-0.41 log units
12,CC(=O)c1ccc2ccccc2c1,1.13 log units
13,O=C1c2ccccc2-c2ccccc21,1.09 log units
14,Brc1ccccn1,1.03 log units
15,Cc1ccncc1,2.07 log units
16,CC(C)=O,1.18 log units
17,OC1CCCCC1,1.14 log units
18,CC(C)c1ccccc1,-0.34 log units
19,Cc1cc(C)c(C)cc1C,-0.15 log units
20,c1ccc(CNCc2ccccc2)cc1,1.34 log units
21,Cc1ccccc1C#N,0.83 log units
22,CCOCCOCC,1.09 log units
